Experiments:
GM-CSF = assay: Biomarker study in RA subjects: serum GM-CSF, Luminex 18-Plex; format: in vivo, human; settings: observed case
Description: (§1) Double-blind, placebo-controlled add on study in subjects with moderately to severely active RA who have an inadequate response to MTX (oral or parenteral).
(§2) 595 subjects randomized to one of 6 dose regimens of Compound 1 (dosed as a [Compound 1:HCl:3H2O]) (3 dose levels administered either once or twice daily) or placebo on top of each subject's stable dose of MTX.
(§3) Compound 1 (dosed as a [Compound 1:HCl:3H2O]) is dosed for twelve weeks once daily (q.d.) (50 mg, 100 mg or 200 mg) or twice daily (b.i.d.) (25 mg, 50 mg or 100 mg); or placebo.
(§4) 18 parameters from human serum samples (GM-CSF, IFNγ, IL-1β, IL-2, IL-4, IL-5, IL-6, IL-7, IL-8, IL-10, IL-12 (p70), IL-13, IL-17A, IL-21, IL-23, MIP-1α, MIP-1β and TNF-α) are analyzed on a Luminex Plateform (BioPlex® L200) using a Luminex 18-Plex Kit (Millipore: HSTCMAG-28SK).
(§5) Coupled beads react with the sample containing the biomarker of interest. […] Phycoerythrin (PE) serves as a fluorescent indicator.
(§6) The concentration of bead bound analyte is proportional to the MFI (Median Fluorescent Intensity) and back-calculated from interpolation with the calibration curve fitted with a 4 or 5 parameters logistic (4PL or 5PL) regression model selected during method pre-validation.
(§7) Treatment effect was assessed using an ANCOVA model on the changes from baseline, with factors: treatment, baseline value of the PD marker, geographical region and previous use of biologics.

MIP-1α = assay: Biomarker study in RA subjects: serum MIP-1α, Luminex 18-Plex; format: in vivo, human; settings: observed case
Description: as §1, §2, §3, §4, §5, §6, §7

[1] = cited from earlier work
IL-6 = assay: Biomarker study in RA subjects: serum IL-6, Luminex 18-Plex; format: in vivo, human; settings: observed case
Description: as §1, §2, §3, §4, §5, §6, §7

TNF-α = assay: Biomarker study in RA subjects: serum TNF-α, Luminex 18-Plex; format: in vivo, human; settings: observed case
Description: as §1, §2, §3, §4, §5, §6, §7

[2] = 50 mg bid, Week 4, N = 73, RA subjects on MTX
[3] = 50 mg bid, Week 12, N = 73, RA subjects on MTX
[4] = 100 mg bid, Week 4, N = 79, RA subjects on MTX
[5] = 100 mg bid, Week 12, N = 79, RA subjects on MTX
[6] = 100 mg qd, Week 4, N = 68, RA subjects on MTX
[7] = 100 mg qd, Week 12, N = 68, RA subjects on MTX
[8] = 200 mg qd, Week 4, N = 75, RA subjects on MTX
[9] = 200 mg qd, Week 12, N = 75, RA subjects on MTX

With `O=C(Nc1nc2cccc(-c3ccc(CN4CCS(=O)(=O)CC4)cc3)n2n1)C1CC1` [Compound 1, cyclopropanecarboxylic acid {5-[4-(1,1-dioxo-thiomorpholin-4-ylmethyl)-phenyl]-[1,2,4]triazolo[1,5-a]pyridin-2yl}-amide] the “GM-CSF Mean change from baseline at Week 4” value (GM-CSF; [2]) was -5.4 pg/mL, the “GM-CSF Mean change from baseline at Week 12” value (GM-CSF; [3]) was -14.4 pg/mL and the “GM-CSF Mean change from baseline at Week 4” value (GM-CSF; [4]) was -12.4 pg/mL. For the same compound, the “GM-CSF Mean change from baseline at Week 12” value (GM-CSF; [5]) was -21.1 pg/mL, the “GM-CSF Mean change from baseline at Week 4” value (GM-CSF; [6]) was -9.3 pg/mL and the “GM-CSF Mean change from baseline at Week 12” value (GM-CSF; [7]) was -19.5 pg/mL. The “GM-CSF Mean change from baseline at Week 4” value (GM-CSF; [8]) was -8.4 pg/mL, the “GM-CSF Mean change from baseline at Week 12” value (GM-CSF; [9]) was -15.0 pg/mL and the “MIP-1α Mean change from baseline at Week 4” value (MIP-1α; [2]) was 1.0 pg/mL. The “MIP-1α Mean change from baseline at Week 12” value (MIP-1α; [3]) was 8.5 pg/mL, the “MIP-1α Mean change from baseline at Week 4” value (MIP-1α; [4]) was -3.1 pg/mL and the “MIP-1α Mean change from baseline at Week 12” value (MIP-1α; [5]) was -5.2 pg/mL. For the same compound, the “MIP-1α Mean change from baseline at Week 4” value (MIP-1α; [6]) was 7.0 pg/mL, the “MIP-1α Mean change from baseline at Week 12” value (MIP-1α; [7]) was 9.1 pg/mL and the “MIP-1α Mean change from baseline at Week 4” value (MIP-1α; [8]) was -1.6 pg/mL. The “MIP-1α Mean change from baseline at Week 12” value (MIP-1α; [9]) was -2.6 pg/mL, the safety profile ([1]; in particular regarding anemia, lymphocytes, neutrophils, hemoglobin) was “remarkable safety profile” and the “efficacy in phase II” value ([1]; rheumatoid arthritis, inflammatory bowel diseases, in particular Crohn's disease) was “remarkable efficacy”. For the same compound, the “IL-6 Mean change from baseline at Week 4” value (IL-6; [2]) was -4.2 pg/mL, the “IL-6 Mean change from baseline at Week 12” value (IL-6; [3]) was -6.0 pg/mL and the “IL-6 Mean change from baseline at Week 4” value (IL-6; [4]) was -11.0 pg/mL. For the same compound, the “IL-6 Mean change from baseline at Week 12” value (IL-6; [5]) was -14.1 pg/mL, the “IL-6 Mean change from baseline at Week 4” value (IL-6; [6]) was -7.0 pg/mL and the “IL-6 Mean change from baseline at Week 12” value (IL-6; [7]) was -8.0 pg/mL. For the same compound, the “IL-6 Mean change from baseline at Week 4” value (IL-6; [8]) was -9.6 pg/mL, the “IL-6 Mean change from baseline at Week 12” value (IL-6; [9]) was -11.2 pg/mL and the “TNFα Mean change from baseline at Week 4” value (TNF-α; [2]) was -0.2 pg/mL. The “TNFα Mean change from baseline at Week 12” value (TNF-α; [3]) was 0.3 pg/mL, the “TNFα Mean change from baseline at Week 4” value (TNF-α; [4]) was -1.7 pg/mL and the “TNFα Mean change from baseline at Week 12” value (TNF-α; [5]) was -2.2 pg/mL. For the same compound, the “TNFα Mean change from baseline at Week 4” value (TNF-α; [6]) was 1.0 pg/mL, the “TNFα Mean change from baseline at Week 12” value (TNF-α; [7]) was -1.0 pg/mL and the “TNFα Mean change from baseline at Week 4” value (TNF-α; [8]) was 0.0 pg/mL. For the same compound, the “TNFα Mean change from baseline at Week 12” value (TNF-α; [9]) was -1.2 pg/mL.

Source: US20190314382A1, “COMPOUNDS AND PHARMACEUTICAL COMPOSITIONS THEREOF FOR THE TREATMENT OF INFLAMMATORY DISEASES” (Galapagos NV, priority 2016, published 2019)
